Test results as given in patent publication US20200291079A1, “ENGINEERING STRUCTURALLY DEFINED NON-SACCHARIDE GLYCOSAMINOGLYCAN MIMETICS VIA A POLYPROLINE SCAFFOLD” (AGENCY FOR SCIENCE, TECHNOLOGY AND RESEARCH, priority 2015, published 2020).
Entries after “also recorded” stand apart in the source; their conditions may differ. Values belong to the molecule of their own block, whether it stands above or below them. Square brackets hold non-standard residues; d marks the D form. Primed or numbered codes have the meaning given here. Ends that are not written are not given here. * marks the point of attachment. PE = 4-azidoproline (Pz) joined by click reaction (1,2,3-triazole) to NS; Biotin = O=C1N[C@H]2[C@H](CS[C@H]2CCCCC(=O)*)N1; PEG12′ = not defined here

Experiments:
Factor IIa = assay: BIOPHEN Heparin Anti-IIa assay in the presence of anti-thrombin; type: biochemical; conditions: at concentrations as high as 300 ug/ml, anti-thrombin present
From the text: (§1) One common drawback hampering the clinical application of negatively charged glycomimetics is the potentially hazardous tendency to activate anti-thrombin, which in turn severely impairs the ability of blood coagulation factors (e.g. Factor Xa and IIa) in the final common pathway to orchestrate blood coagulation. To verify the safety and clinical potential of the engineered non-saccharide glycomimetics of tunable spatial conformation, the effect of (PE)12-NS and heparin on the activity of blood coagulation factors, Factor Xa and IIa in the presence of anti-thrombin, was assessed. This assessment was performed using BIOPHEN Heparin Anti-Xa and Anti-IIa assays (Aniara) where the inhibitory effect of anti-thrombin on Factor Xa and IIa was determined by the ability of the factors to catalyze the hydrolysis of factor-specific chromogenic substrates. […] The use of spatial conformation to present key chemical motifs toward selectins is therefore specific and independent of other proteins that could lead to undesirable consequences if concomitant enhanced binding were to be seen.

[1] = system: B16F10 murine melanoma cells bound to P-selectin-coated surfaces; assay: Adhesion of calcein-labeled tumor cells to immobilized P-selectin; type: cell-based; conditions: B16F10 cells on P-selectin-coated surfaces
From the text: As such, it was examined if the strong binding affinity of (PE)12-NS toward P-selectin could translate into inhibition of P-selectin-mediated adhesion of tumor cells. To do so, recombinant P-selectin chimera protein with a Fc region was immobilized on Protein A-coated surfaces. The adhesion of calcein-labeled B16F10 murine melanoma cells to these surfaces in the presence of heparin or (PE)12-NS was then visualized (FIG. 16A) and quantified by fluorescence microplate reader (FIG. 16B).

Factor Xa = assay: BIOPHEN Heparin Anti-Xa assay in the presence of anti-thrombin; type: biochemical; conditions: at concentrations as high as 300 ug/ml, anti-thrombin present
From the text: as §1

P-selectin [2] = molecular target: T1, P-selectin (Homo sapiens, UniProt P16109); assay: SPR binding to P-selectin; conditions: distributed vs single facial conformation
T1 sequence (P16109 42-830): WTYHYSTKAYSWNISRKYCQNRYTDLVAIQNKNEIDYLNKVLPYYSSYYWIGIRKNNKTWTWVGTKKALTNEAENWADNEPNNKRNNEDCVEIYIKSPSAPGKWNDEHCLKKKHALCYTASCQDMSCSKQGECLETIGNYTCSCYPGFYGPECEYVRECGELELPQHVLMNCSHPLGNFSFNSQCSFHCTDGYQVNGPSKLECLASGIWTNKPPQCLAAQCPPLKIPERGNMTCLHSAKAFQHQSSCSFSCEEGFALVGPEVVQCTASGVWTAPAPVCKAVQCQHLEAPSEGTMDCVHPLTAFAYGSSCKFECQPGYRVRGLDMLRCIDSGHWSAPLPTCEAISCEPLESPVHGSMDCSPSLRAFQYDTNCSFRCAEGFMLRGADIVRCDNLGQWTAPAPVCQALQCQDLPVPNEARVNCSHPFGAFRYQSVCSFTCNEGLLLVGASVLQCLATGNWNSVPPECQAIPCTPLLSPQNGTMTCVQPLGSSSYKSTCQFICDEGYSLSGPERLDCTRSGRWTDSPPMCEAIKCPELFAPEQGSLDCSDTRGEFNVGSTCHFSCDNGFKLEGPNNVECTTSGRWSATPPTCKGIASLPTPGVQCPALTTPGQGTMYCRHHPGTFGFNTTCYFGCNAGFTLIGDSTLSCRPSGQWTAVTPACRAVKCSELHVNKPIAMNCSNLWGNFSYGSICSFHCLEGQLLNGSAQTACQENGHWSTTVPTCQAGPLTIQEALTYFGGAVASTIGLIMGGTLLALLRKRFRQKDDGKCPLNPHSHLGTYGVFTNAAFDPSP
Protocol: SPR measurements were performed using a Biacore T100 system (GE Healthcare). The CM5 sensor chip was primed with HBS-EP+ buffer (10 mM HEPES pH 7.4, 150 mM NaCl, 3.4 mM EDTA, 0.005% P20, GE Healthcare) and was activated using the standard amine-coupling protocol (1:1 mixture of 0.4 M EDC and 0.1M NHS). 0.008 mg/ml of streptavidin solution in 10 mM sodium acetate buffer (Acetate 5.0, GE Healthcare) was conjugated and remaining activated groups were quenched with 1 M ethanolamine solution (pH 8.5). The final amount of streptavidin covalently immobilized on the surface was typically 700 RU. Flow cell 1 (or 3) was used as a reference to subtract nonspecific binding, drift, and the bulk refractive index, while flow cell 2 (or 4) was further immobilized with GAG mimetic agents or natural polysaccharides. […] Immobilized amount is normalized by a molecular weight. For a given affinity measurement, varying amount of protein solutions were successively injected into the flow cells for 240 seconds of contact time and 800 seconds of dissociation time using a flow rate of 50 μL/min at 25° C. Flow cell was regenerated using 2.5 M MgCl2 at 30 μL/min. Association (ka) and dissociation (kd) rate constants were calculated with a 1:1 binding model using Biacore evaluation software, and KD values were calculated from the ratio of kd to ka. […]

GFRα1 [3] = molecular target: GFRα1 (Homo sapiens, UniProt P56159)
Protocol: (§2) SPR measurements were performed using a Biacore T100 system (GE Healthcare). The CM5 sensor chip was primed with HBS-EP+ buffer (10 mM HEPES pH 7.4, 150 mM NaCl, 3.4 mM EDTA, 0.005% P20, GE Healthcare) and was activated using the standard amine-coupling protocol (1:1 mixture of 0.4 M EDC and 0.1M NHS). 0.008 mg/ml of streptavidin solution in 10 mM sodium acetate buffer (Acetate 5.0, GE Healthcare) was conjugated and remaining activated groups were quenched with 1 M ethanolamine solution (pH 8.5). The final amount of streptavidin covalently immobilized on the surface was typically 700 RU. Flow cell 1 (or 3) was used as a reference to subtract nonspecific binding, drift, and the bulk refractive index, while flow cell 2 (or 4) was further immobilized with GAG mimetic agents or natural polysaccharides. […] Immobilized amount is normalized by a molecular weight. For a given affinity measurement, varying amount of protein solutions were successively injected into the flow cells for 240 seconds of contact time and 800 seconds of dissociation time using a flow rate of 50 μL/min at 25° C. Flow cell was regenerated using 2.5 M MgCl2 at 30 μL/min. Association (ka) and dissociation (kd) rate constants were calculated with a 1:1 binding model using Biacore evaluation software, and KD values were calculated from the ratio of kd to ka. Kinetic parameters were obtained by fitting curves to a 1:1 Langmuir model with baseline correction.
(§3) With the non-saccharide glycosaminoglycan mimetics in hand, SPR was employed to facilitate quantitative, real-time kinetic analysis of non-saccharide glycosaminoglycan mimetic binding to GDNF and GFRα1.

GDNF [4] = molecular target: GDNF (Homo sapiens, UniProt P39905)
Protocol: as §2, §3

PC12 cells = assay: Neurite outgrowth assay (GDNF-mediated neuritogenesis); conditions: 72 h; for effect on neuritogenesis: added to culture media, 20 μM, untreated cells
Protocol: PC12 cells were maintained in T75 tissue culture flasks in RPMI 1640 medium (ATCC® 30-2001) supplemented with 10% heat-inactivated horse serum (HI-HS, Gibco 26050-088), 5% fetal bovine serum (FBS, Gibco 26170-043) and 1% penicillin/streptomycin (Gibco 15140-122). Stock cultures from liquid nitrogen were grown at 37° C. with 5% CO2 in a humidified chamber for a minimum of 72 hr before experiments. Cells were seeded on 13 mm round glass coverslips (Paul Marienfeld 0111530). The coverslips were pretreated with 65% nitric acid for three days, washed with distilled water, 70% ethanol and 100% ethanol thrice each for 30 minutes with gentle rocking and then dried in a cell culture hood overnight under UV. For cell attachment, the treated coverslips were coated with laminin (25 μg/mL in PBS; Sigma L2020) at 37° C. for 1 hr, washed thrice with PBS, and then placed at the bottom of a 24-well plate for cell seeding. For all experiments, cells were cultured in RPMI 1640 differentiation media containing 1% HI-HS.
PC12 cells were first harvested and incubated in differentiation media or differentiation media supplemented with 30 μM of DPPE-(PE)12-NS for 2 h. After incubation, the cells were centrifuged and rinsed twice with fresh differentiation medium and then seeded onto laminin-coated coverslips at a density of 100 cells/mm^2. After allowing the cells to attach for 1 hr at 37° C., the medium was replaced with fresh differentiation medium supplemented with 200 ng/mL GDNF and 1 μg/mL GFRα1. As additional controls, (PE)12-NS or NS were further added to the supplemented medium to a final concentration of 20 μM for untreated cells. After 72 h, the cells were fixed with 4% paraformaldehyde solution (Tokyo Chemical Industry 30525-89-4 in PBS) for 15 minutes at room temperature and then rinsed with PBS. Bright-field images were taken using an Olympus IX71 Inverted Microscope at 20× magnification under phase contrast. For each condition, 400-500 randomly selected single cells were counted. The percentage of neurite-bearing cells was determined by counting the number of cells with neurites longer than the cell body. Experiments were repeated three times and done in duplicate each time.

GFRα1 [5] = assay: SPR (Biacore T100), biotinylated mimetic on streptavidin CM5 chip, protein injected, 1:1 model
[6] = molecular target: recombinant P-selectin chimera protein with a Fc region; assay: cell-based or functional assay
GDNF [7] = molecular target: T2, GDNF; assay: SPR (Biacore T100), biotinylated mimetic on streptavidin CM5 chip, protein injected, 1:1 model
T2 chain: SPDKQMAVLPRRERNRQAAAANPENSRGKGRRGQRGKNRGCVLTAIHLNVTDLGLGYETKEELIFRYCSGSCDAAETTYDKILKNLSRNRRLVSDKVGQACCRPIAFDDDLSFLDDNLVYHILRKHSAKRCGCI

P-selectin [8] = molecular target: T3, P-selectin; assay: SPR (Biacore T100), biotinylated mimetic on streptavidin chip, selectin injected
T3 chain: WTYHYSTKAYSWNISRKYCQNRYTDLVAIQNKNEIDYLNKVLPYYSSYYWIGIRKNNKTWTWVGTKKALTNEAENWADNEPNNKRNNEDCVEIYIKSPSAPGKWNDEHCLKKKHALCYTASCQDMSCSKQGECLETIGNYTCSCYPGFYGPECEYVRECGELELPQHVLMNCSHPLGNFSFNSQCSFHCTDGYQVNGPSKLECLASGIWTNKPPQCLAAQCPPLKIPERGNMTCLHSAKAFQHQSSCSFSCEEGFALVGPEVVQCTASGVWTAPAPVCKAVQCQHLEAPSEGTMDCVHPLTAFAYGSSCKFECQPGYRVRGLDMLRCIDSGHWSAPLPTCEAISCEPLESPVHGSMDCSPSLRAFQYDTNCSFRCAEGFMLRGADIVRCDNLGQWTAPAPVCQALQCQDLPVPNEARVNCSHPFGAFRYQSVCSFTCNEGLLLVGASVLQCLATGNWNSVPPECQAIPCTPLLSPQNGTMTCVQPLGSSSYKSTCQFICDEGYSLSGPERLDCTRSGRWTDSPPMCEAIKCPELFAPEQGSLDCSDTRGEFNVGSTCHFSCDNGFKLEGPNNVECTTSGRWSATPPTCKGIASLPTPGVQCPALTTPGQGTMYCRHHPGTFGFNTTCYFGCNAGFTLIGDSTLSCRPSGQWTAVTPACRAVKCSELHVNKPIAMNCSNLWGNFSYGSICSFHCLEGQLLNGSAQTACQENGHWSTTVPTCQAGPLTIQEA

[9] = GFRα1, SPR, 1:1 binding model, 25° C.
[10] = SPR sensorgrams, 0.2-1.0 nM protein
[11] = GDNF, SPR, 1:1 binding model, 25° C.

Chain of GDNF (Homo sapiens, UniProt P39905) (P39905 76-211, species assumed): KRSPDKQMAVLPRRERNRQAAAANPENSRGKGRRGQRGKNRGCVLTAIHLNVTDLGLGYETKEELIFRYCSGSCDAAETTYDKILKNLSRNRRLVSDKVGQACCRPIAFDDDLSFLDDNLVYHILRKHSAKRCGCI
Chain of GFRα1 (Homo sapiens, UniProt P56159) (P56159 25-429, species assumed): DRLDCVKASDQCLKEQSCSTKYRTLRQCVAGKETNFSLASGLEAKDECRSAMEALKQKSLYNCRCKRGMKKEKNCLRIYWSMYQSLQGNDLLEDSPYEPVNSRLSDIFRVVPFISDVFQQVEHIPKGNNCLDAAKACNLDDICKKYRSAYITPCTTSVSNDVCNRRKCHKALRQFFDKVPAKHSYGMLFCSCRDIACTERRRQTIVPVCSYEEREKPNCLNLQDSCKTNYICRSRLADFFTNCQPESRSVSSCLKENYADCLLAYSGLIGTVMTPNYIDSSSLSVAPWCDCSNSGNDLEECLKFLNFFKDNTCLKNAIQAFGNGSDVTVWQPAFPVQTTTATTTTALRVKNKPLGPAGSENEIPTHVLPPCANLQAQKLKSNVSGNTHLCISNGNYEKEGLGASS

Molecule: COC(=O)[C@@H]1C[C@@H](n2cc(CC(COS(=O)(=O)O)OS(=O)(=O)O)nn2)CN1C(=O)[C@@H]1C[C@@H](n2cc(CC(COS(=O)(=O)O)OS(=O)(=O)O)nn2)CN1C(=O)[C@@H]1C[C@@H](n2cc(CC(COS(=O)(=O)O)OS(=O)(=O)O)nn2)CN1C(=O)[C@@H]1C[C@@H](n2cc(CC(COS(=O)(=O)O)OS(=O)(=O)O)nn2)CN1C(=O)[C@@H]1C[C@@H](n2cc(CC(COS(=O)(=O)O)OS(=O)(=O)O)nn2)CN1C(=O)[C@@H]1C[C@@H](n2cc(CC(COS(=O)(=O)O)OS(=O)(=O)O)nn2)CN1C(=O)[C@@H]1C[C@@H](n2cc(CC(COS(=O)(=O)O)OS(=O)(=O)O)nn2)CN1C(=O)[C@@H]1C[C@@H](n2cc(CC(COS(=O)(=O)O)OS(=O)(=O)O)nn2)CN1C(=O)[C@@H]1C[C@@H](n2cc(CC(COS(=O)(=O)O)OS(=O)(=O)O)nn2)CN1C(=O)[C@@H]1C[C@@H](n2cc(CC(COS(=O)(=O)O)OS(=O)(=O)O)nn2)CN1C(=O)[C@@H]1C[C@@H](n2cc(CC(COS(=O)(=O)O)OS(=O)(=O)O)nn2)CN1C(=O)[C@@H]1C[C@@H](n2cc(CC(COS(=O)(=O)O)OS(=O)(=O)O)nn2)CN1C(=O)CCOCCOCCOCCOCCOCCOCCOCCOCCOCCOCCOCCOCCNC(=O)CCCC[C@@H]1SC[C@@H]2NC(=O)N[C@@H]21 (stereo partly drawn) [(PE)12-NS]
activity of Factor IIa (Factor IIa): remained unaffected
concentration from which near-complete inhibition of adhesion is achieved [1]: ≥ 0.6 µg/mL
activity of Factor Xa (Factor Xa): remained unaffected
binding affinity to P-selectin (comparison in words) (P-selectin [2]): stronger binding affinity
kd (GFRα1 [3]; [9]): 4.9 (± 1.7) × 10^−2 S^−1
kα (GFRα1 [3]; [9]): 4.26 (± 0.90) × 10^5 M^−1S^−1
binding affinity to GFRα1 (comparison in words) (GFRα1 [3]; [10]): far higher binding affinity
kd (GDNF [4]; [11]): 2.12 (± 0.07) × 10^−3 S^−1
kα (GDNF [4]; [11]): 6.42 (± 0.28) × 10^5 M^−1S^−1
binding affinity to GDNF (comparison in words) (GDNF [4]; [10]): far higher binding affinity
effect on neuritogenesis (PC12 cells; GDNF and GFRα1): Complete inhibition
effect on neuritogenesis (PC12 cells; GDNF and GFRα1, listed as biotin-(PE)12-NS): completely inhibited neuritogenesis

Molecule: DPPE-(PE)12-NS (PPPPPPPPPPPP)
percentage of neurite-bearing cells (PC12 cells; cells pre-incubated with 30 μM for 2 h, 200 ng/mL GDNF and 1 μg/mL GFRα1, control 16%): 45%
neurite length (PC12 cells; cells pre-incubated with 30 μM for 2 h, GDNF and GFRα1): marked increase

Molecule: pent-4-yne-1,2-diyl bis(sulfate) [NS]
effect on neuritogenesis (PC12 cells; GDNF and GFRα1): No significant effect; also recorded: no discernable effect

Kd (GFRα1 [5]): 116 nM
koff (GFRα1 [5]): 0.049 s⁻¹
kon (GFRα1 [5]): 426000 M⁻¹ s⁻¹
IC50 of inhibition of adhesion of calcein-labeled B16F10 murine melanoma cells to immobilized P-selectin [6]: 0.18 µg/mL
near-complete inhibition of adhesion of B16F10 cells to immobilized P-selectin [6]: > 0.6 µg/mL
Kd (GDNF [7]): 3.3 nM
koff (GDNF [7]): 0.00212 s⁻¹
kon (GDNF [7]): 642000 M⁻¹ s⁻¹
Kd (P-selectin [8]): 6 nM
B1: Biotin-(PE)12-NS (peptide)
peptide: {Biotin-PEG12′}-[PE][PE][PE][PE][PE][PE][PE][PE][PE][PE][PE][PE]
modifications: also: CO2CH3 methyl ester seen in NMR
notes: Non-saccharide glycosaminoglycan mimetic on a polyproline type II helix, with NS on all three faces; The biotinylated form was immobilised on streptavidin for SPR; also called distributed design; distributed conformation
